# Measurements taken from US20230168259A1, “METHOD FOR PREDICTING THE COURSE OF A VIRAL DISEASE” (Leibniz-Institut für Virologie, priority 2020, published 2023).
# What was measured:
# [1] = test system: MIP-1α; design: species or system Syrian golden hamster; conditions: hamster, in vivo, ip
# [2] = test system: SARS-CoV-2; experiment: Virus titer (plaque assay on VeroE6 cells) in organs of SARS-CoV-2 infected hamsters treated with letrozole or placebo; format: in vivo, Syrian golden hamster; conditions: 0.18 mg kg-1 i.p. daily, 3 d p.i., compared to placebo
# [3] = test system: MIP-1β; design: species or system Syrian golden hamster; conditions: hamster, in vivo, ip
# [4] = SARS-CoV-2-infected female hamsters
# [5] = SARS-CoV-2-infected male hamsters
structure (smiles),measurement,setting,value
N#Cc1ccc(C(c2ccc(C#N)cc2)n2cncn2)cc1 [letrozole],expression level of MIP-1α in lungs,[1],lower
same,virus titer in brain,[2]; [4],lower virus titers
same,virus titer in lungs,[2]; [4],lower virus titers
same,virus titer in plasma,[2]; [4],lower virus titers
same,virus titer in brain,[2]; [5],lower virus titers
same,virus titer in lungs,[2]; [5],lower virus titers
same,virus titer in testis,[2]; [5],lower virus titers
same,expression level of MIP-1β in lungs,[3],lower
